# What was measured:
# Conditions in all cases: incubation time: 72 h
# CAL-85-1 [1] = experiment: normalised response (% of control), CellTox Green; higher = less cell death (100 = DMSO, 0 = benzethonium chloride kill control)
# Method in brief: (§1)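 A 20 µl suspension of breast cancer cells was seeded into each well of 384-well plates containing compound at 5 concentrations in 10-fold steps over a compound-specific 10,000-fold range. After 72 h incubation, CellTox Green fluorescence (485/520 nm) was read first, and CellTiter-Glo luminescence was read after 10 min at room temperature. Each plate was normalised against 0.1 % DMSO (100) and a positive kill control (0), and each value is the normalised signal at one concentration.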
# MFM-223 [2] = experiment: as above
# Method in brief: as §1
# HCC1937 [3] = experiment: as above
# Method in brief: as §1
# BT-549 [4] = experiment: as above
# Method in brief: as §1
# MDA-MB-231 [5] = experiment: as above
# Method in brief: as §1
# HCC1599 [6] = experiment: as above
# Method in brief: as §1
# CAL-120 [7] = experiment: as above
# Method in brief: as §1
# MCF-10A [8] = experiment: as above
# Method in brief: as §1
# Hs578T [9] = experiment: as above
# Method in brief: as §1
# BT-474 [10] = experiment: as above
# Method in brief: as §1
# MDA-MB-453 [11] = experiment: as above
# Method in brief: as §1
# HCC1143 [12] = experiment: as above
# Method in brief: as §1
# HDQ-P1 [13] = experiment: as above
# Method in brief: as §1
# DU-4475 [14] = experiment: as above
# Method in brief: as §1
# CAL-148 [15] = experiment: as above
# Method in brief: as §1
# CAL-51 [16] = experiment: as above
# Method in brief: as §1
# MDA-MB-468 [17] = experiment: normalised response (% of control), CellTiter-Glo; higher = more viable cells (100 = DMSO, 0 = benzethonium chloride kill control)
# Procedure: (§2)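 DSRT, 72 h incubation, CellTox Green / CellTiter-Glo readout. Signal is normalised to DMSO and benzethonium chloride controls. Value is the normalised response at dose 3.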
# CAL-85-1 [18] = experiment: as above
# Procedure: as §2
# MFM-223 [19] = experiment: as above
# Procedure: as §2
# HCC1937 [20] = experiment: as above
# Procedure: as §2
# BT-549 [21] = experiment: as above
# Procedure: as §2
# MDA-MB-231 [22] = experiment: as above
# Procedure: as §2
# HCC1599 [23] = experiment: as above
# Procedure: as §2
# CAL-120 [24] = experiment: as above
# Procedure: as §2
# MCF-10A [25] = experiment: as above
# Procedure: as §2
# SK-BR-3 = experiment: as above
# Procedure: as §2
# Hs578T [26] = experiment: as above
# Procedure: as §2
# BT-474 [27] = experiment: as above
# Procedure: as §2
# MDA-MB-453 [28] = experiment: as above
# Procedure: as §2
# HCC1143 [29] = experiment: as above
# Procedure: as §2
# MDA-MB-436 [30] = experiment: as above
# Procedure: as §2
# HDQ-P1 [31] = experiment: as above
# Procedure: as §2
# DU-4475 [32] = experiment: as above
# Procedure: as §2
# CAL-148 [33] = experiment: as above
# Procedure: as §2
# CAL-51 [34] = experiment: as above
# Procedure: as §2
# MDA-MB-468 [35] = experiment: normalised response (% of control), CellTox Green; higher = less cell death (100 = DMSO, 0 = benzethonium chloride kill control)
# Method in brief: as §1
# MDA-MB-436 [36] = experiment: as above
# Method in brief: as §1
smiles,measurement,setting,value
Clc1ccc(Nc2nnc(Cc3ccncc3)c3ccccc23)cc1 [Vatalanib] (100 nM),normalised response,CAL-85-1 [1],77.6%
same,normalised response,MFM-223 [2],103%
same,normalised response,HCC1937 [3],115%
same,normalised response,BT-549 [4],105%
same,normalised response,MDA-MB-231 [5],102%
same,normalised response,HCC1599 [6],106%
same,normalised response,CAL-120 [7],102%
same,normalised response,MCF-10A [8],103%
same,normalised response,Hs578T [9],111%
same,normalised response,BT-474 [10],99.6%
same,normalised response,MDA-MB-453 [11],64%
same,normalised response,HCC1143 [12],117%
same,normalised response,HDQ-P1 [13],109%
same,normalised response,DU-4475 [14],101%
same,normalised response,CAL-148 [15],107%
same,normalised response,CAL-51 [16],110%
same,normalised response,MDA-MB-468 [17],108%
same,normalised response,CAL-85-1 [18],103%
same,normalised response,MFM-223 [19],107%
same,normalised response,HCC1937 [20],103%
same,normalised response,BT-549 [21],109%
same,normalised response,MDA-MB-231 [22],105%
same,normalised response,HCC1599 [23],109%
same,normalised response,CAL-120 [24],99.1%
same,normalised response,MCF-10A [25],111%
same,normalised response,SK-BR-3,102%
same,normalised response,Hs578T [26],106%
same,normalised response,BT-474 [27],103%
same,normalised response,MDA-MB-453 [28],106%
same,normalised response,HCC1143 [29],106%
same,normalised response,MDA-MB-436 [30],111%
same,normalised response,HDQ-P1 [31],101%
same,normalised response,DU-4475 [32],105%
same,normalised response,CAL-148 [33],112%
same,normalised response,CAL-51 [34],89.3%
N.N.[Cl][Pt][Cl] [Cisplatin] (10 nM),normalised response,CAL-85-1 [1],112%
same,normalised response,MFM-223 [2],105%
same,normalised response,HCC1937 [3],90.6%
same,normalised response,BT-549 [4],115%
same,normalised response,MDA-MB-231 [5],114%
same,normalised response,HCC1599 [6],102%
same,normalised response,CAL-120 [7],108%
same,normalised response,MCF-10A [8],115%
same,normalised response,Hs578T [9],78.4%
same,normalised response,BT-474 [10],104%
same,normalised response,MDA-MB-453 [11],106%
same,normalised response,HCC1143 [12],109%
same,normalised response,HDQ-P1 [13],109%
same,normalised response,DU-4475 [14],114%
same,normalised response,CAL-148 [15],103%
same,normalised response,CAL-51 [16],94.8%
same,normalised response,MDA-MB-468 [17],85.3%
same,normalised response,CAL-85-1 [18],94.7%
same,normalised response,MFM-223 [19],99.8%
same,normalised response,HCC1937 [20],97.7%
same,normalised response,BT-549 [21],107%
same,normalised response,MDA-MB-231 [22],103%
same,normalised response,HCC1599 [23],104%
same,normalised response,CAL-120 [24],108%
same,normalised response,MCF-10A [25],106%
same,normalised response,SK-BR-3,93.5%
same,normalised response,Hs578T [26],96.4%
same,normalised response,BT-474 [27],102%
same,normalised response,MDA-MB-453 [28],90.5%
same,normalised response,HCC1143 [29],103%
same,normalised response,MDA-MB-436 [30],103%
same,normalised response,HDQ-P1 [31],101%
same,normalised response,DU-4475 [32],96.6%
same,normalised response,CAL-148 [33],82.8%
same,normalised response,CAL-51 [34],90.6%
CO[C@H]1/C=C\C=C(/C)C(=O)NC2=CC(=O)C(NCCN(C)C)=C(C[C@@H](C)C[C@H](OC)[C@H](O)[C@@H](C)/C=C(\C)[C@@H]1OC(N)=O)C2=O [Alvespimycin] (10 nM),normalised response,MDA-MB-468 [35],116%
same,normalised response,CAL-85-1 [1],95.8%
same,normalised response,MFM-223 [2],104%
same,normalised response,HCC1937 [3],118%
same,normalised response,BT-549 [4],89.8%
same,normalised response,MDA-MB-231 [5],85.3%
same,normalised response,HCC1599 [6],111%
same,normalised response,CAL-120 [7],97.3%
same,normalised response,MCF-10A [8],94.8%
same,normalised response,BT-474 [10],93.9%
same,normalised response,MDA-MB-453 [11],96.9%
same,normalised response,HCC1143 [12],105%
same,normalised response,MDA-MB-436 [36],89.8%
same,normalised response,HDQ-P1 [13],90.8%
same,normalised response,DU-4475 [14],101%
same,normalised response,CAL-148 [15],108%
same,normalised response,CAL-51 [16],110%
same,normalised response,MDA-MB-468 [17],94.8%
same,normalised response,CAL-85-1 [18],104%
same,normalised response,MFM-223 [19],88.1%
same,normalised response,HCC1937 [20],94.8%
same,normalised response,BT-549 [21],63.4%
same,normalised response,MDA-MB-231 [22],106%
same,normalised response,HCC1599 [23],106%
same,normalised response,CAL-120 [24],106%
same,normalised response,MCF-10A [25],115%
same,normalised response,SK-BR-3,72.3%
same,normalised response,Hs578T [26],103%
same,normalised response,BT-474 [27],104%
same,normalised response,MDA-MB-453 [28],89.1%
same,normalised response,HCC1143 [29],99%
same,normalised response,MDA-MB-436 [30],76.8%
same,normalised response,HDQ-P1 [31],89.5%
same,normalised response,DU-4475 [32],103%
same,normalised response,CAL-148 [33],110%
same,normalised response,CAL-51 [34],101%
COc1cc([C@@H]2c3cc4c(cc3[C@@H](O[C@@H]3O[C@@H]5CO[C@@H](C)O[C@H]5[C@H](O)[C@H]3O)[C@H]3COC(=O)[C@H]23)OCO4)cc(OC)c1O [Etoposide] (100 nM),normalised response,MDA-MB-468 [35],56.9%
same,normalised response,CAL-85-1 [1],95.2%
same,normalised response,MFM-223 [2],104%
same,normalised response,HCC1937 [3],111%
same,normalised response,BT-549 [4],92.4%
same,normalised response,MDA-MB-231 [5],112%
same,normalised response,HCC1599 [6],110%
same,normalised response,CAL-120 [7],106%
same,normalised response,MCF-10A [8],75%
same,normalised response,BT-474 [10],101%
same,normalised response,MDA-MB-453 [11],102%
same,normalised response,HCC1143 [12],98.7%
same,normalised response,MDA-MB-436 [36],107%
same,normalised response,HDQ-P1 [13],92%
same,normalised response,DU-4475 [14],98.8%
same,normalised response,CAL-148 [15],92%
same,normalised response,CAL-51 [16],112%
same,normalised response,MDA-MB-468 [17],100%
same,normalised response,CAL-85-1 [18],102%
same,normalised response,MFM-223 [19],110%
same,normalised response,HCC1937 [20],94.9%
same,normalised response,BT-549 [21],94.6%
same,normalised response,MDA-MB-231 [22],120%
same,normalised response,HCC1599 [23],110%
same,normalised response,CAL-120 [24],102%
same,normalised response,MCF-10A [25],106%
same,normalised response,SK-BR-3,109%
same,normalised response,Hs578T [26],111%
same,normalised response,BT-474 [27],99.9%
same,normalised response,MDA-MB-453 [28],113%
same,normalised response,HCC1143 [29],100%
same,normalised response,MDA-MB-436 [30],98.3%
same,normalised response,HDQ-P1 [31],102%
same,normalised response,DU-4475 [32],82.9%
same,normalised response,CAL-148 [33],103%
same,normalised response,CAL-51 [34],107%

# — the supplement of paper PMC4862054
